Measurements from patent publication US20100216875A1, “METHODS OF TREATING ALZHEIMER'S DISEASE” (priority 2006, published 2010).
“Also recorded” adds a separate entry of the source.

Assays:
[1] = system: Aβ40 production from endogenous APP in regulated secretory vesicles isolated from chromaffin cells; assay: Aβ production from endogenous APP in isolated regulated secretory vesicles; format: biochemical, bovine; settings: inhibitor 10 μM
Description: Regulated secretory vesicles isolated from chromaffin cells naturally produce Aβ from endogenous APP when incubated at 37° C. in vitro for several hours. These vesicles can be used as an in vitro screen for compounds that inhibit Aβ production. […] The effects of cathepsin B inhibitors, CA074 (10 μM, ♦) and CA074Me (10 μM, □), on the production of Aβ40 from endogenous APP in regulated secretory vesicles isolated from chromaffin cells was evaluated in time course studies. […] Each inhibitor was tested in triplicate; values represent x±sem (*statistically significant with p<0.05).
Cathepsin B compounds that were effective inhibitors of endogenous II-secretase activity were tested for inhibition of Aβ peptide production in regulated secretory vesicles. The effect of reversible cathepsin B compounds on production of Aβ40 and Aβ42 in isolated chromaffin vesicles was tested by incubating candidate inhibitors (at 10 μM) with lysed chromaffin vesicles under identical conditions as for the β-secretase assay for 8 hours. […] After incubation, Aβ40 and Aβ42 was measured by ELISA assays, as described for measurement of Aβ peptides in brain extracts. Each candidate inhibitor was assayed in triplicate.

[2] = system: primary neuronal chromaffin cells; settings: cited from earlier work
[3] = system: transgenic APPIn mice (London mutant human APP); assay: brain Aβ and amyloid plaque load in transgenic APPIn mice; format: in vivo, mouse; settings: icv 0.015 mg/kg/day, 28 days; for reduction of amyloid plaque load: cortex
Description: Transgenic mice expressing human APP containing the London mutation (APPIn) mimic AD function and pathology in that they are cognitively deficient, have brain amyloid plaque and elevated Aβ (8). […] CA074Me or E64d were administered by icy infusion in brains (0.015 mg/kg/day) for 28 days (8 animals per treatment group).
APPIn mice express the clinical mutant human APP (APP[V717I]) which has a mutation at the γ-secretase site that results in the overproduction of Aβ and the behavioral and neuropathology that develop an AD phenotype (8). These mice show early stage deficits in cognition and memory at 3-9 months age. At the later age of 8-12 months, amyloid plaques have developed in brains of these mice, with increased levels of Aβ40 and Aβ42 peptides in the brain. […] Thus, this AD mouse model allows testing of select reversible compounds to improve cognition and to reduce brain levels of Aβ peptides and amyloid plaques.
Direct icy infusion into the brain was the first route of administration to be tested to establish the effectiveness of reversible inhibitors in the brain to provide cognitive improvement, and reduction in brain Aβ peptides and amyloid plaques. Icy infusion was performed as described above for the irreversible inhibitors with use of the Alzet minipump. The initial dose utilized was the same dosage used for E64d and CA074Me in the APPIn mice or APPswe/In mice Administration of these compounds began at approximately 1-2 months of age and infusion was conducted for periods of 1, 2, 4, and 8 months (or other time periods). Administration of the select reversible compounds by direct icy infusion into mouse brains was conducted initially at 0.025 μl/hr of 1 mg/ml, other doses may be examined based on results with the first dose. Each time point was conducted with about 8-10 animals and 8-10 normal control animals (age-matched) (or greater number of mice per treatment group, if necessary, for appropriate statistical evaluation). At the end of each of these infusion periods, cognitive testing and assessment of Aβ peptide levels with plaque pathology was evaluated. At each of these time points, mice were tested for cognition, and then sacrificed for evaluation of Aβ and neuropathology in the brain
After behavioral testing was completed, the mice were sacrificed for analyses of Aβ40 and Aβ42 peptide levels, and neuropathology. One half brain (one hemisphere) was utilized to prepare brain extracts for measurement of Aβ40 and Aβ42 levels by ELISA assays, and the other half brain was used for neuropathological evaluation. Procedures for preparation of brain extracts and ELISA assays for Aβ peptides are those used for analyses of guinea pig brains
Aβ-related neuropathology was assessed in cortex and hippocampus of brains. The relative extent of Aβ immunoreactivity in neurons and glial cells was assessed. Immunostaining for Aβ was conducted as described previously (58) Aβ-related neuropathology was assessed in cortex and hippocampus of brains, as well as other regions of the brain as controls. Brain tissue was fixed in 4% paraformaldehyde overnight, and then processed to paraffin. Serial sections were obtained, deparaffinized and washed in TBS buffer. Each section was blocked with appropriate normal serum (mouse or rabbit), and subjected to primary anti-Aβ antibody for detection of amyloid deposits. Sections were then stained with DAB ([…]) with the Vector ABC Elite kit (Vector Laboratories). Amyloid areas were imaged with microscopic computer-assisted analysis system using the NIH Image Analysis Software.

[4] = system: primary neuronal chromaffin cells; assay: Aβ secretion by primary neuronal chromaffin cell cultures; format: cell-based, bovine; settings: 50 μM for 18 hours
Description: Neuronal bovine chromaffin cells in primary culture can be used to select compounds that affect Aβ in the regulated or constitutive pathway. Regulated secretory Aβ is determined by measuring Aβ in the cell culture media after inducing the cells to secrete using a triggering stimulus, such as KCl. The constitutive secretory Aβ is determined by measuring Aβ in cell culture media (also called “conditioned media”) from resting cells. […] Regulated secretion was induced by exposing the cells to KCl (50 mM) for 15 minutes. […] Treated cells (+) received CA074Me (50 μM) for 18 hours. The Aβ40 produced by regulated secretion of the treated cells is about 50% less than that produced from regulated secretion by untreated cells. […]
Reversible cathepsin B compounds that inhibited Aβ production in isolated secretory vesicles by at least 50% at 10 μM were tested for reduction of Aβ secreted from the regulated secretory pathway of primary neuronal chromaffin cells. […] Cells were incubated with inhibitors (first at 50 μM) for about 18 hours, and then KCl-induced secretion of Aβ from the regulated secretory pathway was analyzed, by incubating cells in 50 mM KCl for about 15 minutes and measurement of Aβ peptides in the secretion medium Inhibitor effects were more readily detected during increased rates of Aβ production, which can be induced by treatment of cells with PMA (phorbol myristate acetate, 100 nM). […]

[5] = healthy young males, cited from earlier work
[6] = system: muscular dystrophy; settings: Phase I through III trials, Japan; cited from earlier work
[7] = mice, rats and dogs; cited from earlier work

## CCCNC(=O)[C@H]1O[C@@H]1C(=O)N[C@H](C(=O)N1CCC[C@H]1C(=O)OC)[C@@H](C)CC [CA074Me]
[1]
  effect on Aβ production in isolated regulated secretory vesicles: inhibited; also recorded: block Aβ production
[2]
  CTFβ production in primary chromaffin cell cultures: reduced CTFβ production
[3]
  decrease in brain Aβ40: 50%
  decrease in brain Aβ42: 50%
  reduction of amyloid plaque load: significantly reduce amyloid load
[4]; KCl (50 mM) 15 minutes, vs untreated cells
  reduction of Aβ40 produced by regulated secretion: about 50%
[4]; resting cells
  Aβ40 produced by constitutive secretion vs untreated cells: the same

## CCOC(=O)[C@H]1O[C@@H]1C(=O)N[C@@H](CC(C)C)C(=O)NCCC(C)C [E64d]
[5]; 5 mg/kg/day oral
  pulse, resting blood pressure, body temperature, grip force: No change
  subjective or objective symptoms, clinical tests: no change in subjective or objective symptoms or clinical tests
[5]; oral
  absorption: good absorption
  accumulation: no accumulation occurred
  total dose collected in urine: about 30%
[6]
  efficacy in muscular dystrophy: lack of efficacy
[3]
  decrease in brain Aβ40: 50%
  decrease in brain Aβ42: 50%
  reduction of amyloid plaque load: significantly reduce amyloid load
[7]
  therapeutic window / LD50: excellent therapeutic window
